Assay results published in paper PMC2716445 (Journal of Biological Inorganic Chemistry, 2009).
“Also recorded” adds a separate entry of the source. Read-outs that look alike come from different tables or passages of the source.

Columns and labels:
[1] = cited from earlier work
[2] = cited from earlier work; remark: listed apart in the source
[3] = In vivo oral availability, plasma levels after intragastric gavage; set-up: species or system Sprague–Dawley rats; conditions: rat, mean ± SD; for Plasma concentration 30 min: dose per compound 0.23-2.7 mg kg^−1
Octanol partitioning = type: physicochemical; conditions: octanol/aqueous; ± SD of triplicates
[4] = In vitro stability in simulated gastric fluid; type: in vitro ADME; conditions: intact compound after 90 min at 37 °C, pH approximately 1.2, HPLC
[5] = SOD activity, xanthine/xanthine oxidase with NBT detection; type: biochemical; conditions: read-out: SOD IC50, 10 μM NBT, pH 7.8, 25 °C
[6] = Catalase activity, disappearance of hydrogen peroxide; conditions: initial hydrogen peroxide 100 μM; ± SD of triplicates
serum albumin = serum albumin (Homo sapiens, UniProt P02768); test: In vitro binding to serum albumin; conditions: data not shown
[7] = test system: capillary endothelial cells; conditions: endothelial cell culture model; cited from earlier work
[8] = test system: capillary endothelial cells; conditions: cited from earlier work
PC12 cells [9] = test: Inhibition of STS-induced cell death in PC12 cells; type: cell-based, rat; conditions: STS 5 μM, 18–24 h, XTT viability
[10] = Peroxidase activity with tetramethyl benzidine as substrate; conditions: 5 μM sample, 0.2 mM hydrogen peroxide, 0.225 mM TMB, 27 °C; ± SD of triplicates
PC12 cells [11] = test: Cytotoxicity in PC12 cells; type: cell-based, rat; conditions: data not shown
[12] = EUK-425 plasma levels after PO versus IV administration; type: in vivo, Sprague–Dawley rats; conditions: rats, 5 mg kg^−1 PO, 1 mg kg^−1 IV
[13] = test system: capillary endothelial cells; test: Mitigation of ionizing radiation-induced apoptosis in endothelial cell culture; type: cell-based; conditions: endothelial cell culture model; unpublished data
[14] = test system: capillary endothelial cells; test: Cytotoxicity in endothelial cell culture model; type: cell-based; conditions: unpublished data

Sequence of serum albumin (P02768 25-609 limits assumed): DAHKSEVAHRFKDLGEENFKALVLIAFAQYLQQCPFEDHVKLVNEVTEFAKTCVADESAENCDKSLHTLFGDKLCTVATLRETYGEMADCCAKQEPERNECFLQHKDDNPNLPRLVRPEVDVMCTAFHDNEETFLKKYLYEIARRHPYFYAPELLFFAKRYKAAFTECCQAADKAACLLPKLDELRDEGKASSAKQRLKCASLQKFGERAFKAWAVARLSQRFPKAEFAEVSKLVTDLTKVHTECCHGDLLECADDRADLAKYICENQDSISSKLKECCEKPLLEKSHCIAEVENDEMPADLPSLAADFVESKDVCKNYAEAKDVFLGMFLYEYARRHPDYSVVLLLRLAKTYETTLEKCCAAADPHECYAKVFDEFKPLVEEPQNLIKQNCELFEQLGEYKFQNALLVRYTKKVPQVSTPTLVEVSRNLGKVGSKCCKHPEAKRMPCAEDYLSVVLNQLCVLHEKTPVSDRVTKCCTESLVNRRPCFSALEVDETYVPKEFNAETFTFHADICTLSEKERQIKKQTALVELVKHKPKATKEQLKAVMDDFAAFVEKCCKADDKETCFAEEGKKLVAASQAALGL

| Compound | Plasma concentration 30 min [3] [ng/mL] | Plasma concentration 60 min [3] [ng/mL] | Plasma concentration 120 min [3] [ng/mL] | Plasma concentration 240 min [3] [ng/mL] | Plasma concentration 360 min [3] [ng/mL] | Log10 P (Octanol partitioning) | P (octanol partitioning coefficient) (Octanol partitioning) | SGF stability [4] [%] | IC50 [5] [µM] | CAT [6] [μM H2O2 min^−1] | Binding to serum albumin (serum albumin) | Protection of PC12 cells against STS-induced cell death (PC12 cells [9]) | POD [10] [μM TMB min^−1] | Cytotoxicity in PC12 cells (PC12 cells [11]) | also measured |
| --- | --- | --- | --- | --- | --- | --- | --- | --- | --- | --- | --- | --- | --- | --- | --- |
| COC(=O)c1c2nc(c(C(F)(F)F)c3ccc([n-]3)c(C(=O)OC)c3nc(c(C(F)(F)F)c4ccc1[n-]4)C=C3)C=C2.[Cl-].[Mn+3] [AEOL11207, 5,15-bis(methoxycarbonyl)-10,20-bistrifluoromethylporphyrinato manganese(III) chloride, reference compound] | – | – | – | – | – | – | – | – | – | – | – | – | – | – | Presence in brain tissue ([1]; mice, after subcutaneous or oral administration): present in the brain tissue; SOD activity, fold less active than Cu/Zn SOD ([2]; normalized to Cu/Zn SOD, assay methods differed): 123 fold |
| C1=Cc2nc1cc1ccc([n-]1)c(C1CC1)c1nc(cc3ccc([n-]3)c2C2CC2)C=C1.CC(=O)[O-].[Mn+3] [EUK-418, manganese(III) 5,15-dicyclopropylporphine acetate] | 128 ± 83 | 250 ± 147 | 245 ± 145 | 299 ± 224 | 259 ± 166 | 0.548 ± 0.009 | 3.53 ± 0.14 | 92 | 1.73 | 0.47 ± 0.10 | bind to serum albumin | protect PC12 cells against STS-induced cell death; also recorded: relatively poor protector | 0.63 ± 0.08 | – | Oral bioavailability in mice [1]: orally bioavailable in mice; Tissue distribution after oral administration ([1]; mice, selected tissues): kidney > liver > lung ≫ brain; Mitigation of apoptosis induced by ionizing radiation [7]: mitigated apoptosis induced by ionizing radiation; Cytotoxicity in endothelial cell culture model [8]: greatest cytotoxicity |
| C1=Cc2nc1cc1ccc([n-]1)c(-c1ccccc1)c1nc(cc3ccc([n-]3)c2-c2ccccc2)C=C1.CC(=O)[O-].[Mn+3] [EUK-423, manganese(III) 5,15-diphenylporphine acetate] | 25 ± 7 | 53 ± 19 | 48 ± 23 | 110 ± 61 | 118 ± 17 | 0.907 ± 0.002 | 8.07 ± 0.10 | 91 | – | 0.45 ± 0.18 | bind to serum albumin | protect PC12 cells against STS-induced cell death; also recorded: most protective | 0.61 ± 0.05 | – | Mitigation of apoptosis induced by ionizing radiation [7]: mitigated apoptosis induced by ionizing radiation; Cytotoxicity in endothelial cell culture model [8]: intermediate toxicity |
| O=C(O)c1ccc(-c2c3nc(c(-c4ccc(C(=O)O)cc4)c4ccc([n-]4)c(-c4ccc(C(=O)O)cc4)c4nc(c(-c5ccc(C(=O)O)cc5)c5ccc2[n-]5)C=C4)C=C3)cc1.[Mn+3] [MnTBAP, manganese(III) tetrakis(4-benzoic acid) porphyrin] | – | – | – | – | – | – | – | – | – | – | – | – | – | – | SOD activity ([2]; earlier reported activity due to Mn aggregate impurities): no SOD activity |
| manganese(III) 5,10,15,20-tetraethylporphine acetate [EUK-425] | 52 ± 19 | 48 ± 21 | 78 ± 47 | 96 ± 20 | – | 0.932 ± 0.006 | 8.56 ± 0.35 | 97 | 12.5 | 0.57 ± 0.15 | bind to serum albumin | not significantly protective; also recorded: no cytoprotective activity | 0.58 ± 0.03 | cytotoxic; also recorded: most cytotoxic | Detection in plasma by LC-MS/MS after oral gavage and intravenous injection [12]: detected in plasma |
| manganese(III) 5,15-di-3,4-dimethoxyphenylporphine acetate [EUK-450] | 11 ± 10 | 15 ± 9 | 48 ± 46 | 53 ± 53 | 47 ± 38 | 0.650 ± 0.010 | 4.46 ± 0.11 | 98 | 6.39 | 0.58 ± 0.08 | – | not significantly protective; also recorded: no cytoprotective activity | 0.66 ± 0.10 | cytotoxic; also recorded: most cytotoxic | – |
| manganese(III) 5,15-dicyclohexylporphine chloride [EUK-452] | 57 ± 50 | 52 ± 42 | 75 ± 63 | 75 ± 76 | 71 ± 63 | 1.973 ± 0.008 | 94.0 ± 1.7 | 98 | 11.6 | 0.54 ± 0.06 | – | not significantly protective; also recorded: no cytoprotective activity | 0.63 ± 0.05 | cytotoxic; also recorded: most cytotoxic | – |
| manganese(III) 5,15-dipropylporphine chloride [EUK-453] | 8.8 ± 5.9 | 8.1 ± 5.5 | 7.7 ± 6.1 | 7.7 ± 6.0 | 4.6 ± 4.2 | 0.619 ± 0.017 | 4.16 ± 0.16 | 98 | 5.95 | 0.50 ± 0.11 | – | not significantly protective; also recorded: no cytoprotective activity | 0.56 ± 0.03 | cytotoxic; also recorded: most cytotoxic | – |
| manganese(III) 5,15-ditetrahydropyranyoporphine chloride [EUK-451] | 44 ± 38 | 61 ± 54 | 66 ± 62 | 107 ± 102 | 86 ± 70 | −0.660 ± 0.011 | 0.22 ± 0.01 | 100 | 3.36 | 0.64 ± 0.25 | – | protect PC12 cells against STS-induced cell death; also recorded: most protective | 0.59 ± 0.023 | – | Mitigation of apoptosis induced by ionizing radiation [13]: potent mitigator; Cytotoxicity in endothelial cell culture model [14]: significantly lower cytotoxicity than the other EUK-400 compounds |
